From patent publication EP0032708A1, “Tryptophan derivative, process for preparing same and a pharmaceutical composition containing such derivative” (Tanabe Seiyaku Co., Ltd., priority 1980, dated 1981)

What follows are compounds tested on rat brain homogenate (assay: Preventive effect on lipid peroxide formation (thiobarbituric acid colorimetric method)). Conditions: Dose 10^-3M; 10 % rat brain homogenate, pH 7.4, 30-minute incubation at 37°C; 1000 µM.
Type: biochemical
Experimental: (ii) Preventive effect on lipid peroxide formation: An ethanol solution containing 10^-3 or 10-^4 M of a test compound was added to a mixture of 2.4 ml of 0.067 M potassium phosphate buffer solution (pH 7.4) and 0.5 ml of 10 % rat brain homogenate to adjust the final volume of the mixture to 3 ml. After 30-minute incubation of the mixture at 37°C, one ml of 20 % trichloroacetic acid was added thereto, and lipid peroxide formation was determined by the thiobarbituric acid colorimetric method (J. Robak et al., Viochem. Pharmacol., Vol. 25, page 2233 (1976). Suppression (%) of lipid peroxide formation of the test compound was calculated according to the following formula: [formula] • Note: ^* : group containing the test compound ^** : group containing an equal volume of ethanol instead of the test compound solution ΔOD was calculated as [(optical density measured at 532 nm) - (optical density measured at 600 nm)]
For `CCOC(=O)C(C)(C)Oc1ccc(Cl)cc1` [Clofibrate, 2-(4-chlorophenoxy)-2-methylpropanoic acid ethyl ester, reference compound], the “Suppression (%) in lipid peroxide formation” value (from here on “Suppression (%)”) was 24.3%.
In the case of `Cn1cc(C[C@H](NC(=O)SCc2ccccc2)C(=O)O)c2ccccc21` [N^1-methyl-Hα-benzylthiocarbonyl-L-tryptophan], the “Suppression (%)” value is reported as 65.2%.
With `Cc1ccc(CSC(=O)N[C@@H](Cc2c[nH]c3ccccc23)C(=O)O)cc1` [Nα-(4-methylbenzylthiocarbonyl)-L-tryptophan] the “Suppression (%)” value was 72.7%.

Same assay, conditions: Dose 10^-4M; 10 % rat brain homogenate, pH 7.4, 30-minute incubation at 37°C; 100 µM
With `CCOC(=O)C(C)(C)Oc1ccc(Cl)cc1` [Clofibrate, 2-(4-chlorophenoxy)-2-methylpropanoic acid ethyl ester, reference compound] the “Suppression (%)” value was 0.5%.
With `Cn1cc(C[C@H](NC(=O)SCc2ccccc2)C(=O)O)c2ccccc21` [N^1-methyl-Hα-benzylthiocarbonyl-L-tryptophan] the “Suppression (%)” value was 9.0%.
With `Cc1ccc(CSC(=O)N[C@@H](Cc2c[nH]c3ccccc23)C(=O)O)cc1` [Nα-(4-methylbenzylthiocarbonyl)-L-tryptophan] the “Suppression (%)” value was 10.2%.

These compounds were tested on male SD rats (assay: Hypolipidemic activity (test compound in diet of rats for one week; serum lipids and liver weight)). Conditions: test compound 0.10 w/w % in diet for one week.
Type: in vivo
Experimental: (i) Hypolipidemic activity:
A test compound (0.10 w/w %) was added to a commercial diet, and male SD rats (body weight: 120 - 140 g , a group of 6 rats) were maintained on the diet for one week. After the experimental period, blood was collected from the tail vein of the rats under ether anesthesia. Thereafter, the liver was excised and weighed. Serum cholesterol and serum triglyceride were measured according to the methods of Zak (Amer. J. Clin. Pathol., Vol. 24, page 1307 (1954)) and Van Handel Zilversmit (J. Lab. & Clin. Med., Vol. 50, page 152 (1957)), respectively. Then, the increase (%) in liver weight and the decrease (%) in serum cholesterol or triglyceride were calculated according to the following formulae: [formula] [formula]
`CCOC(=O)C(C)(C)Oc1ccc(Cl)cc1` [Clofibrate, 2-(4-chlorophenoxy)-2-methylpropanoic acid ethyl ester, reference compound] was tested, and the “Decrease (%) in serum triglyceride” value was 34%, the “Decrease (%) in serume cholesterol” value was 26% and the “Increase (%) in liver weight” value was 14%.
In the case of `Cn1cc(C[C@H](NC(=O)SCc2ccccc2)C(=O)O)c2ccccc21` [N^1-methyl-Hα-benzylthiocarbonyl-L-tryptophan], the “Decrease (%) in serum triglyceride” value is reported as 30%, the “Decrease (%) in serume cholesterol” value is reported as 15% and the “Increase (%) in liver weight” value is reported as 5%.
In the case of `Cc1ccc(CSC(=O)N[C@@H](Cc2c[nH]c3ccccc23)C(=O)O)cc1` [Nα-(4-methylbenzylthiocarbonyl)-L-tryptophan], the “Decrease (%) in serum triglyceride” value is reported as 48%, the “Decrease (%) in serume cholesterol” value is reported as 14% and the “Increase (%) in liver weight” value is reported as 0%.
